From patent publication US7157455B2, “4-Aminopyrimidine-5-one derivatives” (Hoffmann-La Roche Inc., priority 2003, dated 2007)
Read-outs that look alike come from different tables or passages of the source.

Legend:
human cyclin D1-CDK4 = human cyclin D1-CDK4 (Homo sapiens, UniProt P11802); experiment: FlashPlate kinase assay, IC50 measurement, cyclin D1-CDK4; format: biochemical; conditions: Rb protein substrate, 1 μM ATP
Protocol: (§1) To determine inhibition of Cdk4, Cdk2 and Cdk1 activity, kinase assays were conducted using FlashPlate™ assays (NEN™-Life Science Products). FlashPlate assays were performed using recombinant human cyclin B-CDK1, human cyclin E-CDK2 or human cyclin D1-CDK4 complexes. GST-cyclinE (GST-cycE), CDK2, GST-cyclinB (GST-cycB), CDK1, GST-CDK4 and cyclin D1 (cycD1) cDNA clones in baculovirus vectors were provided by Dr. W. Harper at the Baylor College of Medicine, Houston, Tex. Proteins were co-expressed in High Five™ insect cells and the complex was purified on glutathione Sepharose resin (Pharmacia, Piscataway, N.J.) as previously described (Harper, J. W. et al. Cell 1993, 75, 805–816). A 6×-Histidine tagged truncated form of retinoblastoma (Rb) protein (amino acid 386–928) was used as the substrate for the cycD1-CDK4, cycB-CDK1 and the cycE-CDK2 assays (the expression plasmid was provided by Dr. Veronica Sullivan, Department of Molecular Virology, Roche Research Centre, Welwyn Garden City, United Kingdom). The Rb protein is a natural substrate for phosphorylation by CDK4, CDK2 and CDK1 (see Herwig and Strauss Eur. J. Biochem. Vol. 246 (1997) pp. 581–601 and the references cited therein).
(§2) The expression of the 62 Kd protein was under the control of an IPTG inducible promoter in an M15 E. coli strain. Cells were lysed by sonication and purification was carried out by binding lysates at pH 8.0 to a Ni-chelated agarose column pretreated with 1 mM imidazole. The resin was then washed several times with incrementally decreasing pH buffers to pH 6.0, and eluted with 500 mM imidazole. Eluted protein was dialysed against 20 mM HEPES pH 7.5, 30% glycerol, 200 mM NaCl, and 1 mM DTT. Purified Rb fusion protein stocks were quantitated for protein concentration, aliquoted, and stored at −70° C.
(§3) For all three kinase assays reported herein, 96-well FlashPlates were coated with Rb protein at 10 μg/ml, using 100 μl per well. Plates were incubated at 4° C. overnight or at room temperature for 3 hours on a shaker. To control for nonspecific phosphorylation, one row of wells was coated with 100 μl/well coating buffer (20 mM HEPES, 0.2 M NaCl). Plates were then washed twice with wash buffer (0.01% Tween 20 in phosphate-buffered saline). Compounds to be tested (“test compounds”) were added to the wells at 5× final concentration. Reactions were initiated by immediate addition of 40 μl reaction mix (25 mM HEPES, 20 mM MgCl2, 0.002% Tween 20, 2 mM DTT, 1 μM ATP, 4 nM ^33P-ATP) and a sufficient amount of enzyme to give counts that were at least 10-fold above background. Plates were incubated at room temperature on a shaker for 30 minutes. Plates were washed four times with the wash buffer, sealed, and counted on the TopCount scintillation counter (Packard Instrument Co., Downers Grove, Ill. The percent inhibition of Rb phosphorylation, which is a measure of the inhibition of CDK activity, was determined according to the following formula:
(§4) [formula] where “test compound” refers to the average counts per minute of the test duplicates, “nonspecific” refers to the average counts per minute when no CyclinD/Cdk4, etc., was added, and “total” refers to the average counts per minute when no compound was added. The IC50 value is the concentration of test compound that reduces by 50% the protein-kinase induced incorporation of the radiolabel under the test conditions described. B: Ki Measurement

human cyclin B-CDK1 = human cyclin B-CDK1 (Homo sapiens, UniProt P06493); experiment: FlashPlate kinase assay, IC50 measurement, cyclin B-CDK1; format: biochemical; conditions: Rb protein substrate, 1 μM ATP
Protocol: as §1, §2, §3, §4

human cyclin E-CDK2 = human cyclin E-CDK2 (Homo sapiens, UniProt P24941); experiment: FlashPlate kinase assay, IC50 measurement, cyclin E-CDK2; format: biochemical
Protocol: To determine inhibition of Cdk4, Cdk2 and Cdk1 activity, kinase assays were conducted using FlashPlate™ assays (NEN™-Life Science Products). FlashPlate assays were performed using recombinant human cyclin B-CDK1, human cyclin E-CDK2 or human cyclin D1-CDK4 complexes. GST-cyclinE (GST-cycE), CDK2, GST-cyclinB (GST-cycB), CDK1, GST-CDK4 and cyclin D1 (cycD1) cDNA clones in baculovirus vectors were provided by Dr. W. Harper at the Baylor College of Medicine, Houston, Tex.
as §2, §3
[formula] where “test compound” refers to the average counts per minute of the test duplicates, “nonspecific” refers to the average counts per minute when no CyclinD/Cdk4, etc., was added, and “total” refers to the average counts per minute when no compound was added. […] B: Ki Measurement

HCT116 cells = experiment: Tetrazolium dye proliferation assay (MTT assay); format: cell-based; conditions: Homo sapiens, HCT-116; 90% inhibition of cell proliferation, HCT116 colorectal carcinoma cell line
Protocol: The cell line used was HCT116, a colorectal carcinoma cell line obtained from the American Type Cell Culture Collection (ATCC; Rockville, Md.). The cells were grown in McCoy's 5A medium supplemented with 10% FCS and L-glutamine.
Cells were plated at the appropriate seeding density to give logarithmic growth over the course of the assay in a 96-well tissue culture plate. Plates were incubated overnight at 37° C. in a humidified incubator with 5% CO2. The next day, test compounds were serially diluted to four times the final concentration in the appropriate medium containing 1.2% DMSO. One-fourth final volume of each dilution was added in duplicate to the plates containing cells. The same volume of 1.2% DMSO in medium was added to a row of “control wells” such that the final concentration of DMSO in each well was 0.3%. Wells to which no cells were added served as the “blank.” Wells to which no inhibitor was added served as “no inhibitor control.” The plates were) returned to the incubator, and at set time points (determined by their growth curves) plates were analyzed as described below.
3-(4,5-dimethylthiazole-2-yl)-2,5-diphenyl-2H-tetrazolium bromide (thiazolyl blue; MTT; Sigma) was added to each well to yield a final concentration of 1 mg/ml. Plates were returned to the incubator for 2.5–3 hours at 37° C. The MTT-containing medium was removed and the resulting formazan metabolite was solubilized in 100% ethanol with shaking for 15 minutes at room temperature. Absorbance readings were taken in a microtiter plate reader (Dynatech and Molecular Devices plate readers were used interchangeably) at a wavelength of 570 nm with a 650 nm reference. Percent inhibition (% INH) is calculated by subtracting the absorbance of the blank well from all wells, then subtracting the ratio of the average absorbance of each test duplicate (SAVE) by the average of the controls (CAVE) from 1.00. The final number is then multiplied by 100(% INH=(1.00−SAVE/CAVE)×100).

[1] = Rb protein substrate, 1 μM ATP, read-out: CDK2 IC50
[2] = Rb protein substrate, 1 μM ATP, unit inferred, read-out: CDK2 IC50

Sequence of human cyclin D1-CDK4 (P11802 whole entry): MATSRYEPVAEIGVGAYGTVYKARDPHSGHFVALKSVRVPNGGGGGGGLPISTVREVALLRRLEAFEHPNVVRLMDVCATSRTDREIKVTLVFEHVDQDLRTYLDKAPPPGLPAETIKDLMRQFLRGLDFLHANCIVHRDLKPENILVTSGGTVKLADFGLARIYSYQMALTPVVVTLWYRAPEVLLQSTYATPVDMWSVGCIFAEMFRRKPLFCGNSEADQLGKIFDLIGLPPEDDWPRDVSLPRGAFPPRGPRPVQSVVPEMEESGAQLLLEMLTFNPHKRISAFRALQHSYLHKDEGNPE
Sequence of human cyclin D1-CDK4 (P24385 whole entry partner): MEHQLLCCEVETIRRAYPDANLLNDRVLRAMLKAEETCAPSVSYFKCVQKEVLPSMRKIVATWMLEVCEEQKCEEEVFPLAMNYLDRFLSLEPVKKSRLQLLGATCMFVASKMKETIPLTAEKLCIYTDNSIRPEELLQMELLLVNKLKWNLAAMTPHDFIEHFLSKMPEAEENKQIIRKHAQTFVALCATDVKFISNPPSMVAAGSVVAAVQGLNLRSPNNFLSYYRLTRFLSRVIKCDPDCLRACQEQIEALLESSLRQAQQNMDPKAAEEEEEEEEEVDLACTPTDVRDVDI
Sequence of human cyclin B-CDK1 (P06493 whole entry): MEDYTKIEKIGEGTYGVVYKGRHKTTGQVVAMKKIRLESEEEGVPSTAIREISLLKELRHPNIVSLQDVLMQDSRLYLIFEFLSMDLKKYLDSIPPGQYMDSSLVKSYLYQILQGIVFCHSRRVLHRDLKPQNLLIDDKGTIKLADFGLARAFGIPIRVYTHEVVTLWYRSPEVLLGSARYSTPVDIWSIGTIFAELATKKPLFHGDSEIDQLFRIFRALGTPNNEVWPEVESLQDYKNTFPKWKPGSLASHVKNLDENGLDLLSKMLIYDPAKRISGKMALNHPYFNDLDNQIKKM
Sequence of human cyclin B-CDK1 (P14635 whole entry partner): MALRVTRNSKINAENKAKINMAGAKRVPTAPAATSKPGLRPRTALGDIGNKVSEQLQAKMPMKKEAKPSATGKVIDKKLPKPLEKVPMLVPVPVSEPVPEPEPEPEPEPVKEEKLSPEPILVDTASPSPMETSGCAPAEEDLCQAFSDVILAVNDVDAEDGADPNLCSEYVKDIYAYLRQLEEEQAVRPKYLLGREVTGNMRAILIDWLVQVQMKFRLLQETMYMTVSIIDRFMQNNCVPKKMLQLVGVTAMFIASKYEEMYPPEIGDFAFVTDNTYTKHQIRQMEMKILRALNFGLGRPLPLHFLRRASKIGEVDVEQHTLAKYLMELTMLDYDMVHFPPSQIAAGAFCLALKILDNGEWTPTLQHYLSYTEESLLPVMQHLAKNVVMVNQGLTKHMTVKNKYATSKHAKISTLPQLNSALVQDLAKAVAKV

Row | IC50 (human cyclin D1-CDK4) | IC50 (human cyclin B-CDK1) | IC90 (HCT116 cells) | melting point | SMILES | other results
1 |  |  |  | 137 to 139 °C | COc1ccc(F)c(F)c1C(=O)c1cnc(Cl)nc1Cl [Example 288, (2,4-Dichloro-pyrimidin-5-yl)-(2,3-difluoro-6-methoxy-phenyl)-methanone] | 
2 |  |  |  | 263 °C (dec.) | COc1ccc(F)c(F)c1C(=O)c1cnc(NC2CCN(C=O)CC2)nc1N [Example 284, 4-[4-Amino-5-(2,3-difluoro-6-methoxy-benzoyl)-pyrimidin-2-ylamino]-piperidine-1-carbaldehyde] | 
3 | 5 nM | 28 nM | 320 nM |  | COc1ccc(F)c(F)c1C(=O)c1cnc(N[C@H]2CC[C@H](N3CCCS3(=O)=O)CC2)nc1N [Example 298, Trans-[4-Amino-2-[4-(1,1-dioxo-1λ^6-isothiazolidin-2-yl)-cyclohexylamino]-pyrimidin-5-yl]-(2,3-difluoro-6-methoxy-phenyl)-methanone] | IC50 (human cyclin E-CDK2; [1]): 8 nM
4 |  |  |  | 99 to 101 °C | COc1ccc(F)c(F)c1C(O)c1cnc(Cl)nc1Cl (racemic) [Example 287, rac-(2,4-Dichloro-pyrimidin-5-yl)-(2,3-difluoro-6-methoxy-phenyl)-methanol] | 
5 |  |  |  | 153 °C (dec.) | COc1ccc(F)c(F)c1C(=O)c1cnc(NC2CCN(S(=O)(=O)NC(C)=O)CC2)nc1N [Example 286, 4-[4-Amino-5-(2,3-difluoro-6-methoxy-benzoyl)-pyrimidin-2-ylamino]-piperidine-1-sulfonic acid acetyl-amide] | 
6 |  |  |  | 249 to 250 °C | CS(=O)(=O)N1CCC(Nc2ncc(C(=O)c3ccccc3)c(N)n2)CC1 [Example 283, [4-Amino-2-(1-methanesulfonyl-piperidin-4-ylamino)-pyrimidin-5-yl]-phenyl-methanone] | 
7 |  |  |  | 238 to 239 °C (dec.) | COc1ccc(F)c(F)c1C(=O)c1cnc(Cl)nc1N [Example 289, (4-Amino-2-chloro-pyrimidin-5-yl)-(2,3-difluoro-6-methoxy-phenyl)-methanone] | 
8 | 15 nM | 8 nM | 374 nM |  | COc1ccc(F)c(F)c1C(=O)c1cnc(N[C@H]2CC[C@H](NS(=O)(=O)CCCN3CCOCC3)CC2)nc1N [Example 294, Trans-3-Morpholin-4-yl-propane-1-sulfonic acid [4-[4-amino-5-(2,3-difluoro-6-methoxy-benzoyl)-pyrimidin-2-ylamino]-cyclohexyl]-amide] | IC50 (human cyclin E-CDK2; [1]): 5 nM
9 |  |  |  | 217 to 218 °C | COc1ccc(F)c(F)c1C(=O)c1cnc(NC2CCN(S(N)(=O)=O)CC2)nc1N [Example 285, 4-[4-Amino-5-(2,3-difluoro-6-methoxy-benzoyl)-pyrimidin-2-ylamino]-piperidine-1-sulfonic acid amide] | 

Further lines, the compound ahead of its results:

Row | SMILES | IC50 (human cyclin D1-CDK4) | IC50 (human cyclin B-CDK1) | IC90 (HCT116 cells) | melting point | other results
10 | COc1ccc(F)c(F)c1C(=O)c1cnc(N[C@H]2CC[C@H](NCCO)CC2)nc1N [Example 290, Trans-[4-Amino-2-[4-(2-hydroxy-ethylamino)-cyclohexylamino]-pyrimidin-5-yl}-(2,3-difluoro-6-methoxy-phenyl)-methanone] | 20 nM | 18 nM | 179 nM |  | IC50 (human cyclin E-CDK2; [1]): 5 nM
11 | CC[S+]([O-])c1ncc(C(=O)c2cc(F)ccc2OC)c(N)n1 (stereo not drawn) [Example 163, (4-Amino-2-ethanesulfinyl-pyrimidin-5-yl)-(5-fluoro-2-methoxy-phenyl)-methanone] |  |  |  | 150 to 152 °C | 
12 | COC(=O)N1CCCC(Nc2ncc(C(=O)c3ccccc3OC)c(N)n2)C1 (stereo not drawn) [Example 54, 3-[4-Amino-5-(2-methoxy-benzoyl)-pyrimidin-2-ylamino]-piperidine-1-carboxylic acid methyl ester] | 459 nM | 469 nM | 6440 nM |  | IC50 (human cyclin E-CDK2; [1]): 713 nM
13 | COc1ccc(F)c(F)c1C(=O)c1cnc(NC2CCN(S(=O)(=O)CCCN3CCN(C)CC3)CC2)nc1N [Example 228, (4-Amino-2-[1-[3-(4-methyl-piperazin-1-yl)-propan-1-sulfonyl]-piperidin-4-ylamino]-pyrimidin-5-yl)-(2,3-difluoro-6-methoxy-phenyl)-methanone] | 1 nM | 39 nM | 274 nM |  | IC50 (human cyclin E-CDK2; [2]): 17 nM
14 | CCS(=O)(=O)c1ncc(C(=O)c2cc(F)ccc2OC)c(N)n1 [Example 48, (4-Amino-2-ethanesulfonyl-pyrimidin-5-yl)-(5-fluoro-2-methoxy-phenyl)-methanone] |  |  |  | 174 to 175 °C | 
15 | COc1cc(F)c(F)c(F)c1C(=O)c1cnc(NC2CCN(S(C)(=O)=O)CC2)nc1N [Example 207, [4-Amino-2-(1-methanesulfonyl-piperidin-4-ylamino)-pyrimidin-5-y]-(2,3,4-trifluoro-6-methoxy-phenyl)-methanone] | 1 nM | 5 nM | 630 nM |  | IC50 (human cyclin E-CDK2): 2 nM
16 | COc1cc(F)c(F)c(F)c1C(=O)c1cnc(NC2CCN(C(C)=O)CC2)nc1N [Example 204, 1-[4-[4Amino-5-(2,3,4-trifluoro-6-methoxy-benzoyl)-pyrimidin-2-ylamino]-piperidin-1-yl]-ethanone] | 10 nM | 128 nM | 2400 nM |  | IC50 (human cyclin E-CDK2; [2]): 51 nM
17 | COc1ccc(F)cc1C(=O)c1cnc(NC2CCN(C(=O)OC(C)(C)C)CC2)nc1N [Example 164, 4-[4-Amino-5-(5-fluoro-2-methoxy-benzoyl)-pyrimidin-2-ylamino]-piperidine-1-carboxylic acid tert-butyl ester] |  |  |  | 122 to 124 °C (dec.) | 
18 | COc1ccccc1C(=O)c1cnc(Nc2ccc(N3CCN(C(C)C)CC3)cc2)nc1N [Example 8, [4-Amino-2-[4-(4-isopropyl-piperazin-1-yl)-phenylamino]-pyrimidin-5-yl]-(2-methoxy-phenyl)-methanone] | 171 nM | 3560 nM | 20900 nM |  | IC50 (human cyclin E-CDK2; [1]): 10000 nM
